Data on 7 compounds can be found in patent publication US20150159115A1, “PURIFICATION OF DPA ENRICHED OIL” (Omega Protein Corporation, priority 2013, published 2015).

Molecules are shown by their SMILES. “Also recorded” adds a separate entry of the source. Like-named read-outs stand apart in the source and are kept apart here.

Test [1] has as its system THP-1 cells. As to the kind of experiment: Cytokine (TNF-α, MCP-1, IL-6) release by LPS-stimulated THP-1 macrophages after fatty acid incubation. The format is cell-based. The following applies: for Release of cytokines (TNF-α, MCP-1, IL-6) by THP-1 macrophages compared to control macrophages: fatty acid 50 and 100 μM 24 h, then LPS 24 h; for Release of cytokines by THP-1 macrophages at increasing fatty acid concentration: highest 100 μM. As for the experimental part:
(§1) THP-1 cells were maintained in RPMI 1640+2 mM L-Glutamine, 10 mM HEPES, 1 mM sodium pyruvate, 4500 mg/L glucose, and 1500 mg/L sodium bicarbonate; supplemented with 3.5 μL/L of 2-mercaptoethanol and 10% fetal bovine serum (FBS). Cell line was maintained in 75 cm^2 filtered cap flasks in a 37° C. incubator with 5% CO2. THP-1 cells were seeded in 24 well plates at 5×10^5 cells/mL using 600 μL/well and allowed to differentiate into macrophages (MΦ) for 72 h with phorbol 12-myristate 13-acetate (PMA) at a final concentration of 50 ng/mL.
Experiment 1: Prior to incubation with individual fatty acids, the cells were starved for 8 h in a 2% lipo-free FBS RPMI medium. Individual fatty acids were added in duplicate into the 24 well plate at two concentrations, 50 μM and 100 μM. Every assay was cultured in three runs with duplicates in each run pooled. After incubation for 24 h with fatty acids the MΦ were scraped off the plates and fatty acids were isolated as described in the ‘Animal Tests’ portion of this Example. The fatty acid profiles of the MΦ were determined as previously described (Wang, et al., 2010, Clin. Nutr., DOI: 10.1016/j.clnu.2013.04.009).
(§2) Experiment 2: Previously differentiated MΦ were incubated with fatty acids as described in ‘Experiment 1’ for 24 hours. At the 24 h time point the cells were then stimulated with lipopolysaccharide from E. coli 0111:B4 for another 24 hours. The plates were centrifuged at 1200×g for 5 minutes and supernatant was then collected and analyzed for cytokines. The MΦ were scraped off the plates and fatty acids were isolated as described in the ‘Animal Portion’. The fatty acid profiles of the MΦ were determined as previously described (Wang, et al., 2010, Clin. Nutr., DOI: 10.1016/j.clnu.2013.04.009).
A linear mixed effects model was used in R, lme in the nlme package, for estimating treatment effects on cytokine production in LPS stimulated THP-1 cells. The fixed effects fit were treatment, FA concentration, and when significant LPS concentration was fit as a covariate, the plate cells were cultured on nested within run was fit as a random effect. Least squares means were analyzed as outlined above and pairwise comparisons were made between treatments for FA concentration, or where significant LPS concentration.
The objective of this study was to determine if docosapentaenoic acid n-3 (DPAn3) enrichment of macrophages (MΦ) changed their inflammatory response relative to saturated (S), mono-unsaturated (MU), and other poly-unsaturated (PU) fatty acids (FA). Differentiated THP-1 cells were incubated with one of 11 FA (50 and 100 μM) of varying degrees of unsaturation or no FA for 24 h prior to 24 h of stimulation with lipopolysaccharide from E. coli. Fatty acids were collected from MΦ without stimulation to determine the fatty acid profiles. Media was collected from MΦ post-stimulation and probed for prostaglandin E2, and cytokines, including tumor necrosis factor-α, monocyte chemoattractant protein-1, and interleukin-6. Prostaglandin E2 production was greater (P<0.05) for AA than all other FA, and omega-3 PUFA decreased (P<0.01) PGE2 compared to n6 PUFA and all other FA.

The subject of test [2] is THP-1 cells. The experiment in a line: Prostaglandin E2 production by LPS-stimulated THP-1 macrophages after fatty acid incubation. The format is cell-based. To be noted: fatty acid 50 and 100 μM 24 h, then LPS 24 h. As for the experimental part:
as §1, §2
The objective of this study was to determine if docosapentaenoic acid n-3 (DPAn3) enrichment of macrophages (MΦ) changed their inflammatory response relative to saturated (S), mono-unsaturated (MU), and other poly-unsaturated (PU) fatty acids (FA). […]

The test system of test [3] is murine peritoneal macrophages. To be noted: cited from earlier work.
Test [4] deals with LDLr−/− mice. The experiment in a line: TNF-α concentration in adipose tissue of mice fed different omega-3 products. The following applies: mouse, in vivo. From the text:
(§3) 48 male LDLr−/− mice (8-10 weeks of age, ˜20 g) were obtained from Jackson Laboratories (stock #2207) and allowed to acclimate to the cages, room, and feeding design for 12 days. After the acclimation period mice were weighed and randomly assigned to one of six treatments. Mice were fed an isolipid (20% total fatty acids w/w), isonitrogenous, and 0.2% cholesterol (w/w) diet, which is considered atherogenic (Ain76, 58TQ TestDiet®) as a base diet. This base diet was formulated to meet or exceed all nutrient and energy requirements for a growing mouse. The treatments were added to the base diet (0.76% w/w of the total diet) and was made once at the beginning of the study, separated into weekly aliquots, stored at −80° C., allowed to thaw at 4° C. for 2 days prior to feeding, and stored at 4° C. until fed. A sample from each weekly aliquot was collected, composited, and archived for fatty acid analysis at a later date. The treatments were as follows: (1) Negative control diet, 3.5% of the total fatty acids were replaced with milk fat (the only source of fat in the base diet), (2) 3.5% of the total fatty acids were replaced with purified ethyl esters of DHA, (3) 3.5% of the total fatty acids were replaced with purified ethyl esters of DPAn3, (4) 3.5% of the total fatty acids were replaced with purified ethyl esters of EPA, (5) 3.5% of the total fatty acids were replaced with omega-3 fatty acids from Lovaza® (GlaxoSmithKline), and (6) 3.5% of the total fatty acids were replaced with omega-3 fatty acids from ΩmegaActiv® DPA 5000 (Omega Protein Inc., Houston, Tex.; Table 1).
TNF-α concentration in adipose tissue of mice fed with different omega-3 products

The subject of test [5] is LDLr−/− mice. The experiment in a line: Fluorescence intensity of inflammatory markers in brain microvessel (cerebrovasculature) of mice. To be noted: relative to control = 1.00. The format is in vivo, mouse.
Source text: as §3
(§4) The objectives of these studies were to compare the effects of replacing 3.5% of the total fatty acids with DPAn3, EPA, DHA, and commercial combinations of EPA, DPAn3, and DHA on serum lipid profiles, brain inflammation, and the development of atherosclerosis in LDLr−/− mice fed an atherogenic diet for 20 weeks and [2] to determine if DPAn3 enrichment of macrophages (50 and 100 μM) changed their lipopolysaccharide stimulated inflammatory profile relative to saturated (S), mono-unsaturated (MU), and other omega-6 and omega-3 poly-unsaturated (PU) fatty acids (FA).
Flourescence intensity (relative) of brain microvessel

Test [6] deals with LDLr−/− mice. The experiment in a line: Fluorescence intensity of inflammatory markers in brain hippocampus of mice. It counts as in vivo, mouse. The following applies: relative to control = 1.
Source text: as §3, §4

Turning to `CCCCC/C=C\C/C=C\C/C=C\C/C=C\CCCC(=O)O` [AA, Arachidonic acid], the “Release of cytokines (TNF-α, MCP-1, IL-6) by THP-1 macrophages compared to control macrophages” value (shortened to “Release … compared to control macrophages”) with THP-1 cells [1] is “most potent inhibitor of cytokine release followed by AA”; in the test with THP-1 cells [1] (listed as Arachidonic acid), “decreased cytokine expression, but not to the extent of EPA supplementation”. Also, the “Prostaglandin E2 production by THP-1 macrophages” value in the test with THP-1 cells [2] was “greater; also recorded: increased greatly”. The TNF-α production result is recorded as “completely inhibited” in test [3] (AA at 2-5 μM, increasing LPS concentrations) and “decreased TNF-α production” in test [3] (AA at concentrations as low as 1 μM).

In the case of `CCCCCCCCCCCCCCCC(=O)O` [C16:0], in the test with THP-1 cells [1], the “Release … compared to control macrophages” value is “did not change the amount of cytokines released” and the “Release of cytokines by THP-1 macrophages at increasing fatty acid concentration” value (shortened to “Release … at increasing fatty acid concentration”) was “did not change, or increased the amount of cytokines released”.

For `CCCCCCCCCCCCCCCCCC(=O)O` [C18:0], in the test with THP-1 cells [1], the “Release … compared to control macrophages” value is recorded as “did not change the amount of cytokines released” and the “Release … at increasing fatty acid concentration” value is “did not change, or increased the amount of cytokines released”.

As to `CC/C=C\C/C=C\C/C=C\C/C=C\C/C=C\C/C=C\CCC(=O)O` [DHA, docosahexaenoic acid], in the test on LDLr−/− mice [4], the “TNF-α Concentration in adipose tissue” value amounted to 0.82 pg/μg protein. In addition, in the test on LDLr−/− mice [5], the “IL-8 fluorescence intensity (relative) of brain microvessel” value came to 0.86 and the “MCP-1 fluorescence intensity (relative) of brain microvessel” value is listed as 0.93. In addition, in the test with LDLr−/− mice [6], the “IL-8 fluorescence intensity (relative) of brain hippocampus” value was found to be 0.46, the “TIMP2 fluorescence intensity (relative) of brain hippocampus” value worked out at 0.23 and the “TNF-α fluorescence intensity (relative) of brain hippocampus” value is recorded as 0.29.

For the compound `CC/C=C\C/C=C\C/C=C\C/C=C\C/C=C\CCCCCC(=O)O` [DPA, docosapentaenoic acid], the “TNF-α Concentration in adipose tissue” value in the test with LDLr−/− mice [4] is listed as 0.41 pg/μg protein. Moreover, in the test with LDLr−/− mice [5], the “IL-8 fluorescence intensity (relative) of brain microvessel” value was 0.96 and the “MCP-1 fluorescence intensity (relative) of brain microvessel” value is 0.92. In addition, in the test on LDLr−/− mice [6], the “IL-8 fluorescence intensity (relative) of brain hippocampus” value was found to be 0.70, the “TIMP2 fluorescence intensity (relative) of brain hippocampus” value is 0.17 and the “TNF-α fluorescence intensity (relative) of brain hippocampus” value was 0.28.

As for `CC/C=C\C/C=C\C/C=C\C/C=C\C/C=C\CCCC(=O)O` [EPA, eicosapentaenoic acid], in the test with LDLr−/− mice [4], the “TNF-α Concentration in adipose tissue” value is reported as 0.58 pg/μg protein. In the test with LDLr−/− mice [5], the “IL-8 fluorescence intensity (relative) of brain microvessel” value is listed as 0.93 and the “MCP-1 fluorescence intensity (relative) of brain microvessel” value amounted to 0.96. For the same compound, in the test on LDLr−/− mice [6], the “IL-8 fluorescence intensity (relative) of brain hippocampus” value is listed as 0.72, the “TIMP2 fluorescence intensity (relative) of brain hippocampus” value is given as 0.63 and the “TNF-α fluorescence intensity (relative) of brain hippocampus” value was 0.31.

As for `CCCCCCCC/C=C\CCCCCCCC(=O)O` [oleic acid], in the test with THP-1 cells [1], the “Release … compared to control macrophages” value is recorded as “did not change the amount of cytokines released; also recorded: did not change inflammatory cytokine release” and the “Release … at increasing fatty acid concentration” value was “did not change, or increased the amount of cytokines released”.
